Experimental findings from the OPERA property sets (Mansouri et al. 2018) are described below.

Take `COc1ccccc1N1CCN(CCNC(=O)c2ccccc2)CC1`: the logP was 2.2.
As for `COc1ccccc1N1CCN(CCCC(=O)c2ccc(F)cc2)CC1`, the figure is 3.6; as for `COc1ccccc1N1CCN(CCNC(=O)c2cccnc2)CC1`, 1.2.
`COc1ccccc1N1CCN(CCNC(=O)c2ccc[nH]2)CC1` displayed a logP of 1.6.
As for `COc1ccccc1N1CCN(CCNC(=O)c2ccco2)CC1`, the figure is 1.6; as for `COc1ccccc1N1CCN(CCNC(=O)c2cccs2)CC1`, 2; as for `COc1ccccc1N1CCN(CCNC(=S)C2CCCCC2)CC1`, 3.7.
On to `COc1ccccc1N1CCN(CCOCc2ccc(F)cc2)CC1`, for which the logP stood at 3.6.
`COc1ccccc1N1CCN(CCNC(=N)C2CCCCC2)CC1`: the logP stood at 3.4.
As for `COc1ccccc1N1CCN(CCCCc2ccc(F)cc2)CC1`, the figure is 4.8.
As for `COc1ccccc1N1CCN(CCCOc2ccc(F)cc2)CC1`, the figure is 4.1.
With `COc1ccccc1N1CCN(CCCC(O)c2ccc(F)cc2)CC1` (configuration not stated) the figure was 3.4.
As to `COc1ccccc1N1CCN(CCNC(=O)c2ccc(F)cc2)CC1`, the logP is 2.5.
As for `COc1ccccc1N1CCN(CCC=Cc2ccc(F)cc2)CC1`, the figure is 4.7; as for `COc1ccccc1N1CCN(CCNC(=O)C2CCCCC2)CC1`, 2.8; as for `COc1ccccc1N1CCN(CCNC(C)=O)CC1`, 0.5.
Molecule `COc1ccccc1N1CCN(CCNC(=O)c2ccncn2)CC1` had a logP of 1.5.

By logP is commonly meant a log measure of how a compound divides between an organic and an aqueous phase. Read a low logP as lower lipophilicity.
